Where a name gives a salt, the structure may show the parent alone. Read-outs that look alike come from different tables or passages of the source.

For orientation: Ki means a dissociation constant, usually derived from enzyme kinetics or from competition with a known ligand.

The target of assay [1] is T1, HCV genotype 1b (BK) NS3 modified enzyme with a R155K mutation (Hepatitis C virus genotype 1b, UniProt P26663, R1181K).
T1 construct: HCV genotype 1b (BK) NS3 modified enzyme
In words: HCV NS3 protease time-resolved fluorescence (TRF) assay, genotype 1b R155K. In kind it is biochemical. The note with it: Ki 1b R155K. A digest of the protocol: (§1)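 NS3/NS4A protease was pre-incubated 10 min with inhibitor in 50 mM HEPES pH 7.5, 150 mM NaCl, 15% glycerol, 0.15% Triton X-100, 10 mM DTT, 0.1% PEG 8000. TRF peptide substrate (25 nM final) was hydrolysed for 6 h at room temperature. IC50 came from four-parameter fits.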

In assay [2] the target is HCV NS3 protease genotype 3a (3A-1) (Hepatitis C virus genotype 3a, UniProt Q81258). In words: HCV NS3 protease time-resolved fluorescence (TRF) assay, genotype 3a. Format: biochemical. A digest of the protocol: as §1
Setting [3] is: genotype 1b (BK) NS3 R155K, single value.
[4] abbreviates: first of two values printed in the cell (not explained).
Where [5] appears, read: second of two values printed in the cell (not explained).

Consider `C=C[C@@H]1C[C@]1(NC(=O)[C@@H]1C[C@@H]2CN1C(=O)[C@H](C1CCCC1)NC(=O)O[C@@H]1CCC[C@H]1CC/C=C\Cc1c(nc3ccccc3c1OCC)O2)C(=O)NS(=O)(=O)C1CC1` [Example 3, (3aR,7S,10S,12R,21Z,24aS)-7-cyclopentyl-N-{(1R,2S)-1-[(cyclopropylsulfonyl)carbamoyl]-2-ethenylcyclopropyl}-19-ethoxy-5,8-dioxo-1,2,3,3a, 5,6,7,8,11,12,20,23,24,24a-tetradecahydro-10H-9,12-methanocyclopenta[18,19][1,10,3,6] dioxadiazacyclononadecino[11,12-b] quinoline-10-carboxamide], for which the Ki in assay [1] (setting [3]) worked out at 1.4 nM; in assay [2] (Ki 3a), 35 nM.
Taken in the same sequence, the figures for `C=C[C@@H]1C[C@]1(NC(=O)[C@@H]1C[C@@H]2CN1C(=O)[C@H](C(C)(C)C)NC(=O)O[C@@H]1C[C@H]1CCCCCc1c(nc3ccccc3c1OCCCN1CC(F)C1)O2)C(=O)NS(=O)(=O)C1(C)CC1` [Example 155, (1aR,5S,8S,10R,22aR)-5-tert-butyl-N-[(1R,2S)-2-ethenyl-1-{[(1-methylcyclopropyl)sulfonyl]carbamoyl}cyclopropyl]-17-[3-(3-fluoroazetidin-1-yl)propoxy]-3,6-dioxo-1,1a,3,4,5,6,9,10,18,19,20, 21,22,22a-tetradecahydro-8H-7,10-methanocyclopropa[18,19][1,10,3,6] dioxadiazacyclononadecino [11,12-b]quinoline-8-carboxamide] were 0.11 nM and 1.4 nM.
For `C=C[C@@H]1CC1(NC(=O)[C@@H]1C[C@@H]2CN1C(=O)[C@H](C(C)(C)C)NC(=O)O[C@@H]1C[C@H]1CCCCCc1c(nc3ccccc3c1OC1C3CNCC1COC3)O2)C(=O)NS(=O)(=O)C1(C)CC1` (single isomer, unassigned) [Example 258, trifluoroacetate], the Ki came out at 0.012 nM in assay [1] (setting [4]), 0.079 nM in assay [1] (setting [5]) and 2.75 nM in assay [2] (Ki 3a).
As for `C=C[C@@H]1C[C@]1(NC(=O)[C@@H]1C[C@@H]2CN1C(=O)[C@H](C(C)(C)C)NC(=O)O[C@@H]1C[C@H]1CCCCCc1c(nc3ccccc3c1OCCCN1CC(C#N)C1)O2)C(=O)NS(=O)(=O)C1(C)CC1` [Example 184, (1aR,5S,8S,10R,22aR)-5-tert-butyl-17-[3-(3-cyanoazetidin-1-yl)propoxy]-N-[(1R,2S)-2-ethenyl-1-{[(1-methylcyclopropyl)sulfonyl]carbamoyl}cyclopropyl]-3,6-dioxo-1,1a,3,4,5,6,9,10, 18,19,20,21,22,22a-tetradecahydro-8H-7,10-methanocyclopropa[18,19][1,10,3,6] dioxadiazacyclononadecino[11,12-b] quinoline-8-carboxamide], the Ki is 0.057 nM in assay [1] (setting [3]) and 1.1 nM in assay [2] (Ki 3a).
As to `C=C[C@@H]1C[C@]1(NC(=O)[C@@H]1C[C@@H]2CN1C(=O)[C@H](C1CCCC1)NC(=O)O[C@]1(C)CCC[C@H]1CC/C=C/Cc1c(nc3ccccc3c1OCc1ccccc1)O2)C(=O)NS(=O)(=O)C1CC1` [Example 14, (3aR,7S,10S,12R,21E,24aS)-19-(benzyloxy)-7-cyclopentyl-N-{(1R,2S)-1-[(cyclopropylsulfonyl)carbamoyl]-2-ethenylcyclopropyl}-3a-methyl-5,8-dioxo-1,2,3,3a,5,6,7,8,11,12,20,23,24,24a-tetradecahydro-10H-9,12-methanocyclopenta[18,19] [1,10,3,6]dioxadiazacyclononadecino[11,12-b] quinoline-10-carboxamide], the figures for the Ki in assay [1] (setting [3]) and in assay [2] (read-out: Ki 3a) were 0.81 nM and 28 nM, respectively.
For the compound `C=C[C@@H]1C[C@]1(NC(=O)[C@@H]1C[C@@H]2CN1C(=O)[C@H](C(C)(C)C)NC(=O)O[C@@H]1C[C@H]1CCCCCc1c(nc3ccccc3c1OC1CC3CCC(C1)N3CC)O2)C(=O)NS(=O)(=O)C1(C)CC1` (single isomer, unassigned) [Example 277], the Ki in assay [1] (setting [4]) stood at 0.008 nM; in assay [1] (setting [5]) it was 0.013 nM; in assay [2] (Ki 3a), 0.078 nM.
Take `C=C[C@@H]1C[C@]1(NC(=O)[C@@H]1C[C@@H]2CN1C(=O)[C@H](C1CCCC1)NC(=O)O[C@@H]1CCC[C@H]1CC/C=C/Cc1c(nc3ccccc3c1OCCCCO)O2)C(=O)NS(=O)(=O)C1CC1` [Example 68, (3aR,7S,10S,12R,21E,24aS)-7-cyclopentyl-N-{(1R,2S)-1-[(cyclopropylsulfonyl)carbamoyl]-2-ethenylcyclopropyl}-19-(4-hydroxybutoxy)-5,8-dioxo-1,2,3,3a,5,6,7,8,11,12,20,23,24,24a-tetradecahydro-10H-9,12-methanocyclopenta[18,19][1,10,3,6]dioxadiazacyclononadecino[11,12-b]quinoline-10-carboxamide]: the Ki in assay [1] (setting [3]) is 0.16 nM; in assay [2] (Ki 3a), 1.6 nM.
For `C=C[C@@H]1C[C@]1(NC(=O)[C@@H]1C[C@@H]2CN1C(=O)[C@H](C(C)(C)C)NC(=O)O[C@@H]1C[C@H]1CCCCCc1c(nc3ccccc3c1OCCCN(C)Cc1nc3cc(C)ccc3[nH]1)O2)C(=O)NS(=O)(=O)C1(C)CC1` [Example 191, (1aR,5S,8S,10R,22aR)-5-tert-butyl-N-[(1R,2S)-2-ethenyl-1-{[(1-methylcyclopropyl)sulfonyl]carbamoyl}cyclopropyl]-17-(3-{methyl[(5-methyl-1H-benzimidazol-2-yl)methyl]amino}propoxy)-3,6-dioxo-1,1a,3,4,5,6,9,10,18,19, 20,21,22,22a-tetradecahydro-8H-7,10-methano cyclopropa[18,19][1,10,3,6] dioxadiazacyclononadecino[11,12-b] quinoline-8-carboxamide], the Ki in assay [1] (setting [3]) was 0.16 nM; in assay [2] (Ki 3a), 1.5 nM.
Taken in the same sequence, the figures for `C=C[C@@H]1C[C@]1(NC(=O)[C@@H]1C[C@@H]2CN1C(=O)[C@H](C1CCCC1)NC(=O)O[C@@H]1CCC[C@H]1CC/C=C/Cc1c(nc3ccccc3c1OCCN1CCOC1=O)O2)C(=O)NS(=O)(=O)C1CC1` [Example 42, (3aR,7S,10S,12R,21E,24aS)-7-cyclopentyl-N-{(1R,2S)-1-[(cyclopropylsulfonyl)carbamoyl]-2-ethenylcyclopropyl}-5,8-dioxo-19-[2-(2-oxo-1,3-oxazolidin-3-yl)ethoxy]-1,2,3,3a,5,6,7,8,11,12,20,23,24,24a-tetradecahydro-10H-9,12-methanocyclopenta[18,19][1,10,3,6]dioxadiazacyclononadecino[11,12-b]quinoline-10-carboxamide] were 0.073 nM and 1.5 nM.
On to `CC[C@@H]1C[C@]1(NC(=O)[C@@H]1C[C@@H]2CN1C(=O)[C@H](C1CCCC1)NC(=O)O[C@@H]1CCC[C@H]1CCCCCc1c(nc3ccccc3c1OC)O2)C(=O)NS(=O)(=O)C1CC1` [Example 27, (3aR,7S,10S,12R,24aR)-7-cyclo pentyl-N-{(1R,2R)-1-[(cyclopropylsulfonyl)carbamoyl]-2-ethylcyclopropyl}-19-methoxy-5,8-dioxo-1,2,3,3a,5,6,7,8,11,12,20,21,22,23,24,24a-hexadeca hydro-10H-9,12-methanocyclopenta[18,19] [1,10,3,6]dioxadiazacyclononadecino[11,12-b] quinoline-10-carboxamide], for which the Ki amounted to 2.5 nM in assay [1] (setting [3]) and 59 nM in assay [2] (Ki 3a).
For `C=C[C@@H]1C[C@]1(NC(=O)[C@@H]1C[C@@H]2CN1C(=O)[C@H](C(C)(C)C)NC(=O)O[C@@H]1C[C@H]1CCCCCc1c(nc3ccccc3c1OCCN1CCC(C)(O)CC1)O2)C(=O)NS(=O)(=O)C1(C)CC1` [Example 175, (1aR,5S,8S,10R,22aR)-5-tert-butyl-N-[(1R,2S)-2-ethenyl-1-{[(1-methylcyclopropyl)sulfonyl]carbamoyl}cyclopropyl]-17-[2-(4-hydroxy-4-methylpiperidin-1-yl)ethoxy]-3,6-dioxo-1,1a,3,4,5,6,9,10,18,19,20,21,22,22a-tetradeca hydro-8H-7,10-methanocyclopropa[18,19][1,10,3,6] dioxadiazacyclononadecino[11,12-b] quinoline-8-carboxamide], in that order: 0.091 nM and 0.89 nM.
For `C=C[C@@H]1C[C@]1(NC(=O)[C@@H]1C[C@@H]2CN1C(=O)[C@H](C1(C)CCCCC1)NC(=O)O[C@@H]1C[C@H]1CCCCCc1c(nc3ccccc3c1OC1CCNCC1)O2)C(=O)NS(=O)(=O)C1(C)CC1` [Example 268, (1aR,5S,8S,10R,22aR)—N-[(1R,2S)-2-ethenyl-1-{[(1-methylcyclopropyl)sulfonyl]carbamoyl}cyclopropyl]-5-(1-methylcyclohexyl)-3,6-dioxo-17-(piperidin-4-yloxy)-1,1a,3,4,5,6,9,10,18,19,20,21,22,22a-tetradecahydro-8H-7,10-methanocyclopropa[18,19][1,10,3,6]dioxadiazacyclononadecino[11,12-b]quinoline-8-carboxamide], the Ki is 0.012 nM in assay [1] (setting [4]), 0.034 nM in assay [1] (setting [5]) and 0.2 nM in assay [2] (Ki 3a).
Turning to `C=C[C@@H]1C[C@]1(NC(=O)[C@@H]1C[C@@H]2CN1C(=O)[C@H](C(C)(C)C)NC(=O)O[C@@H]1CCC[C@H]1CCCCCc1c(nc3ccccc3c1OCCN1CCOCC1)O2)C(=O)NS(=O)(=O)C1(COC)CC1` [Example 61, (3aR,7S,10S,12R,24aR)-7-tert-butyl-N-[(1R,2S)-2-ethenyl-1-({[1-(methoxymethyl)cyclopropyl]sulfonyl}carbamoyl)cyclopropyl]-19-[2-(morpholin-4-yl)ethoxy]-5,8-dioxo-1,2,3,3a,5,6,7,8,11,12,20,21,22,23,24,24a-hexadecahydro-10H-9,12-methanocyclopenta[18,19][1,10,3,6]dioxadiazacyclononadecino[11,12-b]quinoline-10-carboxamide], the Ki was found to be 0.7 nM in assay [1] (setting [3]) and 20 nM in assay [2] (Ki 3a).

The record behind these values is US9328138B2 (priority 2011, dated 2016).
